From paper PMC8842277, “Highly Antiproliferative Latonduine and Indolo[2,3-c]quinoline Derivatives: Complex Formation with Copper(II) Markedly Changes the Kinase Inhibitory Profile” (Journal of Medicinal Chemistry, 2022)

Key:
[1] = Thermodynamic solubility, UV–vis of saturated solutions
Method: The concentration of the compounds was determined by UV–vis spectrophotometry using stock solutions of the compounds with a known concentration dissolved in pure DMSO and 50% (v/v) DMSO/buffered aqueous solution for the calibration.

CK2 = CK2 (Homo sapiens, UniProt P68400); assay: Kinase panel screen; assay type: biochemical; conditions: 10 µM compound
Sequence of CK2 (P68400 whole entry): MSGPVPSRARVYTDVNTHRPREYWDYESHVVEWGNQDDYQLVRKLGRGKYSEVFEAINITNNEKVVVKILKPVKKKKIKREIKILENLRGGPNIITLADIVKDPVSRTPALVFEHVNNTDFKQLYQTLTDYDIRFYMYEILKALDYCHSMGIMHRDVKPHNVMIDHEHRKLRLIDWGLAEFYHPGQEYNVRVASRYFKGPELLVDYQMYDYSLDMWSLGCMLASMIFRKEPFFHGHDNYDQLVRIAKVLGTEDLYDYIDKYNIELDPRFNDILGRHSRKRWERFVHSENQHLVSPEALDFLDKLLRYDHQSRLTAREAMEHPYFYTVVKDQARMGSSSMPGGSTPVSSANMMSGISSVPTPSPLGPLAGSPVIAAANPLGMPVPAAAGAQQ
Text: (§1) Figure 7 (see also Table S4) summarizes the results of this assay as a histogram plotting the percentage of the remaining enzyme activity (x-axis) as a function of added lead compound (HL^8: blue trace, 8: red trace) for each of the 50 enzymes assayed (y-axis). […] Thus, the coordination to copper(II) completely changes the kinase inhibition profile of HL^8.
(§2) Figure 7 Screening of HL^8 and 8 against 50 enzymes: histogram with % remaining activity on the x-axis plotted against the compound identifier (blue trace: HL^8 and red trace: 8) and enzyme identifier on the […]. The screen was carried out at a compound concentration of 10 μM, an enzyme concentration of 50 nM, and an ATP concentration of 100 μM.
(§3) All kinase assays were carried out using Multidrop 384’s at room temperature in a total assay volume of 25.5 μL. To plates containing 0.5 μL of HL^8 and 8, DMSO control or acid blank […], 15 μL of an enzyme mix containing enzyme […], and excess peptide/protein substrate in buffer was added. Compounds were pre-incubated in the presence of the enzyme and peptide/protein substrate for 5 min before initiation of the reaction by addition of 10 μL of ATP (final concentration selected for each kinase at 5, 20, or 50 μM). Assays were carried out for 30 min at room temperature before termination by the addition of 5 μL of orthophosphoric acid. The assay plates were then harvested onto P81 Unifilter Plates by a PerkinElmer Harvester and air dried. The dry Unifilter plates were then sealed on the addition of MicroScint O and were counted in PerkinElmer Topcount scintillation counters.

MST2 = MST2 (Homo sapiens, UniProt Q13188); assay: Kinase panel screen; assay type: biochemical; conditions: 10 µM compound
Text: as §1, §2, §3

p38a MAPK = p38a MAPK (Homo sapiens, UniProt Q16539); assay: Kinase panel screen; assay type: biochemical; conditions: 10 µM compound
Sequence of p38a MAPK (Q16539 whole entry): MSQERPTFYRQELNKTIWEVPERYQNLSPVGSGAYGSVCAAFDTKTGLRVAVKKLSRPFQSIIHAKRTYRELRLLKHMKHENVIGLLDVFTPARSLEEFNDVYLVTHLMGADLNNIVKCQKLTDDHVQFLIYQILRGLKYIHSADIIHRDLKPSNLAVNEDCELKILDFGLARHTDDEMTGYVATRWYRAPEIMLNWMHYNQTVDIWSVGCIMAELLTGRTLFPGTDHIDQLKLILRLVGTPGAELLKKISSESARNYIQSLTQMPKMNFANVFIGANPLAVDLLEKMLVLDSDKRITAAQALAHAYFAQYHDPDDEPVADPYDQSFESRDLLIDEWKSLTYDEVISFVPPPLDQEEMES
Text: as §1, §2, §3

JNK1 = JNK1 (Homo sapiens, UniProt P45983); assay: Kinase panel screen; assay type: biochemical; conditions: 10 µM compound
Text: as §1, §2, §3

HIPK2 = HIPK2 (Homo sapiens, UniProt Q9H2X6); assay: Kinase panel screen; assay type: biochemical; conditions: 10 µM compound
Text: as §1, §2, §3

BTK = BTK (Homo sapiens, UniProt Q06187); assay: Kinase panel screen; assay type: biochemical; conditions: 10 µM compound
Text: as §1, §2, §3

EPH-A2 = EPH-A2 (Homo sapiens, UniProt P29317); assay: Kinase panel screen; assay type: biochemical; conditions: 10 µM compound
Text: as §1, §2, §3

TTK = TTK (Homo sapiens, UniProt P33981); assay: Kinase panel screen; assay type: biochemical; conditions: 10 µM compound
Text: as §1, §2, §3

NEK6 = NEK6 (Homo sapiens, UniProt Q9HC98); assay: Kinase panel screen; assay type: biochemical; conditions: 10 µM compound
Text: as §1, §2, §3

Lck = Lck (Homo sapiens, UniProt P06239); assay: Kinase panel screen; assay type: biochemical; conditions: 10 µM compound
Sequence of Lck (P06239 whole entry): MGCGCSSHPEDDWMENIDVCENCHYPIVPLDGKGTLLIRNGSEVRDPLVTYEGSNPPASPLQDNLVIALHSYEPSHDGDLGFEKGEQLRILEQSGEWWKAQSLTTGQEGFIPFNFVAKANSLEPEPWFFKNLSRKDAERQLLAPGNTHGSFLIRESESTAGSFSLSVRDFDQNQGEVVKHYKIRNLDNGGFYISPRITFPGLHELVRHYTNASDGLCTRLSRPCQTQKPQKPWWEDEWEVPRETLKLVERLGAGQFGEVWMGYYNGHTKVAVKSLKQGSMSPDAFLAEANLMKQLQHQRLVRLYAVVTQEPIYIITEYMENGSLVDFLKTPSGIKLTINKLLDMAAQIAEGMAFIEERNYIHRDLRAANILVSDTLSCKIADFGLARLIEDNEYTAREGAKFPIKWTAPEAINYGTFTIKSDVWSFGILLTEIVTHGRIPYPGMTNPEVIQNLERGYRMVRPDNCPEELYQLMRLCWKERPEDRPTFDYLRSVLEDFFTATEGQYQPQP
Text: as §1, §2, §3

PRK2 = PRK2 (Homo sapiens, UniProt Q16513); assay: Kinase panel screen; assay type: biochemical; conditions: 10 µM compound
Text: as §1, §2, §3

SRPK1 = SRPK1 (Homo sapiens, UniProt Q96SB4); assay: Kinase panel screen; assay type: biochemical; conditions: 10 µM compound
Sequence of SRPK1 (Q96SB4 whole entry): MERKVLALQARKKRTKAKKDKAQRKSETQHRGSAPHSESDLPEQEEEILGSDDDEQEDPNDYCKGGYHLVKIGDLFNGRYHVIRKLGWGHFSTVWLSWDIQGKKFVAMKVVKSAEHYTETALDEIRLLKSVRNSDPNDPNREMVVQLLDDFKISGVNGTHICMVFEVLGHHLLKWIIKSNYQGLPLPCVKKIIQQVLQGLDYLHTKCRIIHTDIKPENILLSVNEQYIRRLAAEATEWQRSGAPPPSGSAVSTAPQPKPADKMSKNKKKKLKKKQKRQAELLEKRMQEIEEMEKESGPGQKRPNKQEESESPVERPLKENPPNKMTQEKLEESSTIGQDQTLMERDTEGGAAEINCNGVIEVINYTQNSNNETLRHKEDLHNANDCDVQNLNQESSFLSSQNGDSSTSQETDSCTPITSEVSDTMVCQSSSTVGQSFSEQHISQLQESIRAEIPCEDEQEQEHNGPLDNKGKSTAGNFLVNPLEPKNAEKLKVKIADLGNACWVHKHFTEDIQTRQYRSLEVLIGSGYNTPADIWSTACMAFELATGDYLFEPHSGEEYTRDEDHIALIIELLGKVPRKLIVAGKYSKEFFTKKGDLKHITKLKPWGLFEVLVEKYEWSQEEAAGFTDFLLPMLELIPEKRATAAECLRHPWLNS
Text: as §1, §2, §3

PKCa = PKCa (Homo sapiens, UniProt P17252); assay: Kinase panel screen; assay type: biochemical; conditions: 10 µM compound
Text: as §1, §2, §3

SYK = SYK (Homo sapiens, UniProt P43405); assay: Kinase panel screen; assay type: biochemical; conditions: 10 µM compound
Text: as §1, §2, §3

CAMKKb = CAMKKb (Homo sapiens, UniProt Q96RR4); assay: Kinase panel screen; assay type: biochemical; conditions: 10 µM compound
Text: as §1, §2, §3

TBK1 = TBK1 (Homo sapiens, UniProt Q9UHD2); assay: Kinase panel screen; assay type: biochemical; conditions: 10 µM compound
Text: as §1, §2, §3

Aurora B = Aurora B (Homo sapiens, UniProt Q96GD4); assay: Kinase panel screen; assay type: biochemical; conditions: 10 µM compound
Sequence of Aurora B (Q96GD4 whole entry): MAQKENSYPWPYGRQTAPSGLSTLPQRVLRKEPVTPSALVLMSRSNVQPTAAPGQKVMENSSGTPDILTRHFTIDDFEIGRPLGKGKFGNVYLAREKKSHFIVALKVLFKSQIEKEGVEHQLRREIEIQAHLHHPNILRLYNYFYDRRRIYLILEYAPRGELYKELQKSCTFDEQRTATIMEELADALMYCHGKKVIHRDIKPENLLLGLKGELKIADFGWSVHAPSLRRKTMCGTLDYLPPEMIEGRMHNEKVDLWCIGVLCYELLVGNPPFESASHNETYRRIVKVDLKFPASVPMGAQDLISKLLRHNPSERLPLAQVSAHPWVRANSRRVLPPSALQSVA
Text: as §1, §2, §3

CK1δ = CK1δ (Homo sapiens, UniProt P48730); assay: Kinase panel screen; assay type: biochemical; conditions: 10 µM compound
Sequence of CK1δ (P48730 whole entry): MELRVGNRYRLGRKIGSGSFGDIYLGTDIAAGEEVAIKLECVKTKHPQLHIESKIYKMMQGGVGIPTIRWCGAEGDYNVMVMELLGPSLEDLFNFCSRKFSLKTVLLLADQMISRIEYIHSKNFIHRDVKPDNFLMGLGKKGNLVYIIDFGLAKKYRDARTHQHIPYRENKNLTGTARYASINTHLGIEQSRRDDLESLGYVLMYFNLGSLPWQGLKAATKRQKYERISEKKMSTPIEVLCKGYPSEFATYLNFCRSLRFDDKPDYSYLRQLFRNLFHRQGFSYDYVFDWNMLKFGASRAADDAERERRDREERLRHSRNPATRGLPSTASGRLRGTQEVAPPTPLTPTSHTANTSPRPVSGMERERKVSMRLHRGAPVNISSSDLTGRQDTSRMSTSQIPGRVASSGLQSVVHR
Text: as §1, §2, §3

IRAK4 = IRAK4 (Homo sapiens, UniProt Q9NWZ3); assay: Kinase panel screen; assay type: biochemical; conditions: 10 µM compound
Sequence of IRAK4 (Q9NWZ3 whole entry): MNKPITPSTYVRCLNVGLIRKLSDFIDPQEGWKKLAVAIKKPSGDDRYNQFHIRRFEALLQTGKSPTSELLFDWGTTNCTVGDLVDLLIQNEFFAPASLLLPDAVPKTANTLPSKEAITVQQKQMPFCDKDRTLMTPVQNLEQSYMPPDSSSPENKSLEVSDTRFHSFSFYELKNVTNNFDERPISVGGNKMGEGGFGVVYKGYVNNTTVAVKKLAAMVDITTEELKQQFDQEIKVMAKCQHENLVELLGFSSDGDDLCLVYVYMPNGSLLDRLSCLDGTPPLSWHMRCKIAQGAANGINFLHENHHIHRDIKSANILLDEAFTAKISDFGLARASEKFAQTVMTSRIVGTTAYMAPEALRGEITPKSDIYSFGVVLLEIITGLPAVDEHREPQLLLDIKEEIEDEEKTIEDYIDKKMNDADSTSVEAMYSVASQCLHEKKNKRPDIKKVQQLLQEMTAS
Text: as §1, §2, §3

MKK1 = MKK1 (Homo sapiens, UniProt Q02750); assay: Kinase panel screen; assay type: biochemical; conditions: 10 µM compound
Text: as §1, §2, §3

VEG-FR = VEG-FR (Homo sapiens, UniProt P17948); assay: Kinase panel screen; assay type: biochemical; conditions: 10 µM compound
Text: as §1, §2, §3

IGF-1R = IGF-1R (Homo sapiens, UniProt P08069); assay: Kinase panel screen; assay type: biochemical; conditions: 10 µM compound
Text: as §1, §2, §3

PDK1 = PDK1 (Homo sapiens, UniProt O15530); assay: Kinase panel screen; assay type: biochemical; conditions: 10 µM compound
Text: as §1, §2, §3

HER4 = HER4 (Homo sapiens, UniProt Q15303); assay: Kinase panel screen; assay type: biochemical; conditions: 10 µM compound
Text: as §1, §2, §3

TAK1 = TAK1 (Homo sapiens, UniProt O43318); assay: Kinase panel screen; assay type: biochemical; conditions: 10 µM compound
Text: as §1, §2, §3

LKB1 = LKB1 (Homo sapiens, UniProt Q15831); assay: Kinase panel screen; assay type: biochemical; conditions: 10 µM compound
Text: as §1, §2, §3

ROCK 2 = ROCK 2 (Homo sapiens, UniProt O75116); assay: Kinase panel screen; assay type: biochemical; conditions: 10 µM compound
Text: as §1, §2, §3

SmMLCK = SmMLCK (Homo sapiens, UniProt Q15746); assay: Kinase panel screen; assay type: biochemical; conditions: 10 µM compound
Sequence of SmMLCK (Q15746 923-1914): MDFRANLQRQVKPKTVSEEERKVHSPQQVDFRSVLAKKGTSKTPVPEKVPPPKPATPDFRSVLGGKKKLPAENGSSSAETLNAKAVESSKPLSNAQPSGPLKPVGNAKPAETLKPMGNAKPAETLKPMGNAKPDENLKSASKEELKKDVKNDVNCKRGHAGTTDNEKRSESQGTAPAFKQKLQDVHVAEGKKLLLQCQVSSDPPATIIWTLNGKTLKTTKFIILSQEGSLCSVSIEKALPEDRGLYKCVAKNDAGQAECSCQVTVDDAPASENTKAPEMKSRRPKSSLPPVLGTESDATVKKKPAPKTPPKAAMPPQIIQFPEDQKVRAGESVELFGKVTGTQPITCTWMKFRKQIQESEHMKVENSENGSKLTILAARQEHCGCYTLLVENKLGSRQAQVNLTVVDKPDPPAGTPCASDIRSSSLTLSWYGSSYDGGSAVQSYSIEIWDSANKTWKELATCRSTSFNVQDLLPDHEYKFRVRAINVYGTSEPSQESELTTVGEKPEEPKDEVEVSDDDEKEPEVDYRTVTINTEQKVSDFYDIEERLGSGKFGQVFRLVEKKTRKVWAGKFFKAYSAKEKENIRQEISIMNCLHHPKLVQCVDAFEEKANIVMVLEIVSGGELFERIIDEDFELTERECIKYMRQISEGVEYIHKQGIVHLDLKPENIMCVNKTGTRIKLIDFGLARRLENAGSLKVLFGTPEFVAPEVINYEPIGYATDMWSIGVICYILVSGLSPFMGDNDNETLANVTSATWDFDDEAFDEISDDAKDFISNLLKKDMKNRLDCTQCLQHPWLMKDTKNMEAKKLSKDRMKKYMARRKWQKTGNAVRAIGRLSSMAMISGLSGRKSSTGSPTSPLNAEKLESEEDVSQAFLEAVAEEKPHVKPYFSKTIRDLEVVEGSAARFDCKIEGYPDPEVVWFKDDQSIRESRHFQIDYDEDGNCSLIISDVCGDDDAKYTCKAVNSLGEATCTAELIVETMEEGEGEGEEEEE
Text: as §1, §2, §3

RSK1 = RSK1 (Homo sapiens, UniProt Q15418); assay: Kinase panel screen; assay type: biochemical; conditions: 10 µM compound
Sequence of RSK1 (Q15418 whole entry): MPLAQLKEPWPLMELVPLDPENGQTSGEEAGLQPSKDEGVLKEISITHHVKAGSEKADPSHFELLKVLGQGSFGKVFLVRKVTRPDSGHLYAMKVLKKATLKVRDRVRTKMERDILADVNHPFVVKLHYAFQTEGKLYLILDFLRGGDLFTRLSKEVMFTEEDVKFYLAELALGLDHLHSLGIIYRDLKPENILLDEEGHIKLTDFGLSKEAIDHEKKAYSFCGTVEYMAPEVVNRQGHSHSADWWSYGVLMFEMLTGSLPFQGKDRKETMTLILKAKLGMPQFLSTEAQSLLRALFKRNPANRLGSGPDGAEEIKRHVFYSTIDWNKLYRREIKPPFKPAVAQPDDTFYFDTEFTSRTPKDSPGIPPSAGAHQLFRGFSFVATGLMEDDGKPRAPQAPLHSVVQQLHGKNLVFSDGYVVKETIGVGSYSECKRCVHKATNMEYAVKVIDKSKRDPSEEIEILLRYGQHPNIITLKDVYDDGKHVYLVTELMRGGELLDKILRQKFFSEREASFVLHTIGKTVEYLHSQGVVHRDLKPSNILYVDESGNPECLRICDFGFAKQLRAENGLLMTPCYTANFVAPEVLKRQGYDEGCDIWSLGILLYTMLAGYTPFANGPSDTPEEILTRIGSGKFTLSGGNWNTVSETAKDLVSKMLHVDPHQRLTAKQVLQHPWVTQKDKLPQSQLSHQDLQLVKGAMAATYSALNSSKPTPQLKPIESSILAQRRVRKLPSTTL
Text: as §1, §2, §3

PKD1 = PKD1 (Homo sapiens, UniProt Q15139); assay: Kinase panel screen; assay type: biochemical; conditions: 10 µM compound
Text: as §1, §2, §3

TrkA = TrkA (Homo sapiens, UniProt P04629); assay: Kinase panel screen; assay type: biochemical; conditions: 10 µM compound
Text: as §1, §2, §3

CC(=NNc1nc2ccccc2c2c1[nH]c1ccc(Br)cc12)c1ccc(CN2CCOCC2)cn1.[Cl][Cu][Cl] [compound 8, CuCl2(HL^8)·H2O]
Thermodynamic solubility (S) ([1]; pH 5): 34.3 µM
Thermodynamic solubility (S) ([1]; pH 7.4): 10.4 µM
% remaining activity (CK2): 79%
% remaining activity (MST2): 82%
% remaining activity (p38a MAPK): 123%
% remaining activity (JNK1): 134%
% remaining activity (HIPK2): 108%
% remaining activity (BTK): 61%
% remaining activity (EPH-A2): 132%
% remaining activity (TTK): 64%
% remaining activity (NEK6): 43%
% remaining activity (Lck): 54%
% remaining activity (PRK2): 38%
% remaining activity (SRPK1): 40%
% remaining activity (PKCa): 80%
% remaining activity (SYK): 39%
% remaining activity (CAMKKb): 98%
% remaining activity (TBK1): 76%
% remaining activity (Aurora B): 78%
% remaining activity (CK1δ): 98%
% remaining activity (IRAK4): 105%
% remaining activity (MKK1): 94%
% remaining activity (VEG-FR): 77%
% remaining activity (IGF-1R): 60%
% remaining activity (PDK1): 121%
% remaining activity (HER4): 71%
% remaining activity (TAK1): 120%
% remaining activity (LKB1): 107%
% remaining activity (ROCK 2): 98%
% remaining activity (SmMLCK): 87%
% remaining activity (RSK1): 53%
% remaining activity (PKD1): 65%
% remaining activity (TrkA): 82%
